How the values were obtained:
Test in all cases: Post-emergence herbicidal test, % visual injury
Assay type in all cases: in vivo
Conditions in all cases: 336 h, rate 500 g/ha, 14±1 days post application
[1] = system: Amaranthus retroflexus (AMARE)
Description: (§1) Seeds of a variety of test species are grown in a sandy loam soil mixture, Lolium multiflorum (LOLMU), Amaranthus retroflexus (AMARE), Echinochloa crus-galli (ECHCG), Veronica persica (VERPE).
(§2) After sowing, at growth stage BBCH 12-14 (post-emergence), the plants are sprayed with an aqueous spray solution derived from the formulation of the technical active ingredient in acetone/water (50:50) solution containing 0.5% Tween 20 (polyoxyethlyene sorbitan monolaureate, CAS RN 9005-64-5). The test compounds are applied at the required concentration of active ingredient in g/ha. The test plants are then grown in a glasshouse under controlled environmental conditions and watered regularly as required. After 14±1 days post application (for post-emergence test), the test is evaluated by assessing the percentage damage caused to the plants in comparison with the untreated plots. The biological activities for post-emergence testing are shown below (Table 3) as a % visual injury.

[2] = system: Lolium multiflorum (LOLMU)
Description: as §1, §2

[3] = system: Echinochloa crus-galli (ECHCG)
Description: as §1, §2

Veronica persica (VERPE) = system: Veronica persica (VERPE)
Description: as §1, §2

Compound | pest or weed control at 500 g/ha [1] [%] | pest or weed control at 500 g/ha [2] [%] | pest or weed control at 500 g/ha [3] [%] | pest or weed control at 500 g/ha (Veronica persica (VERPE)) [%]
O=C(COc1ccc(F)cc1Cl)Nc1n[nH]c(C2CC2)n1 [Compound 1] | 100 | 40 | 90 | 60
COCc1n[nH]c(NC(=O)COc2ccc(F)cc2Cl)n1 [Compound 3] | 100 | 60 | 90 | 90
O=C(COc1cccc(C(F)(F)F)c1)Nc1nnc(C(F)(F)F)[nH]1 [Compound 4] | 99 | 0 | 20 | 80
O=C(COc1ccc(F)c(Cl)c1)Nc1nnc(C(F)(F)F)[nH]1 [Compound 5] | 80 | 0 | 30 | 98
O=C(COc1ccc(F)cc1Cl)Nc1nnc(N2CCCC2)[nH]1 [Compound 6] | 50 | 0 | 20 | 50
CC(C)(C)c1nc(NC(=O)COc2ccc(F)cc2Cl)n[nH]1 [Compound 7] | 60 | 40 | 80 | 60
O=C(COc1c(Cl)cccc1Cl)Nc1nnc(C(F)(F)F)[nH]1 [Compound 9] | 20 | 0 | 0 | 0
O=C(COc1ccc(F)cc1F)Nc1nnc(C(F)(F)F)[nH]1 [Compound 10, 2-(2,4-difluorophenoxy)-N-[5-(trifluoromethyl)-4H-1,2,4-triazol-3-yl]acetamide] | 40 | 0 | 30 | 80
CCC(Oc1ccccc1Cl)C(=O)Nc1nnc(C(F)(F)F)[nH]1 (centres unmarked) [Compound 12] | 70 | 0 | 10 | 60
CS(=O)(=O)c1ccc(OCC(=O)Nc2nnc(C(F)(F)F)[nH]2)cc1 [Compound 13] | 60 | 60 | 0 | 80
O=C(COc1ccc(F)cc1Cl)Nc1nnc(C(F)F)[nH]1 [Compound 14] | 100 | 60 | 90 | 60
Cc1ccc(OCC(=O)Nc2nnc(C(F)(F)F)[nH]2)c(Br)c1 [Compound 15] | 0 | 0 | 0 | 50
O=C(COc1ccc(Cl)c(F)c1)Nc1nnc(C(F)(F)F)[nH]1 [Compound 16, 2-(4-chloro-3-fluorophenoxy)-N-[5-(trifluoromethyl)-4H-1,2,4-triazol-3-yl]acetamide] | 100 | 0 | 20 | 70
O=C(COc1ccc(Br)cc1F)Nc1nnc(C(F)(F)F)[nH]1 [Compound 17] | 60 | 0 | 0 | 70
Cc1cccc(Cl)c1OCC(=O)Nc1nnc(C(F)(F)F)[nH]1 [Compound 18] | 0 | 0 | 0 | 70
CCC(Oc1ccccc1F)C(=O)Nc1nnc(C(F)(F)F)[nH]1 (centres unmarked) [Compound 19] | 0 | 0 | 0 | 20
Cc1ccc(OCC(=O)Nc2nnc(C(F)(F)F)[nH]2)cc1 [Compound 20] | 0 | 0 | 30 | 40
O=C(COc1cccc(Br)c1)Nc1nnc(C(F)(F)F)[nH]1 [Compound 21] | 0 | 20 | 0 | 60
O=C(COc1ccc(F)cc1Cl)Nc1n[nH]c(C2CCC2)n1 [Compound 22] | 100 | 40 | 90 | 90
CC(C)c1nnc(NC(=O)COc2ccc(F)cc2Cl)[nH]1 [Compound 23, 2-(2-chloro-4-fluorophenoxy)-N-[5-(propan-2-yl)-4H-1,2,4-triazol-3-yl]acetamide] | 100 | 40 | 90 | 100
CN(C)c1n[nH]c(NC(=O)COc2ccc(F)cc2Cl)n1 [Compound 24] | 70 | 0 | 70 | 50
O=C(COc1nc(Cl)c(Cl)cc1Cl)Nc1nnc(C(F)(F)F)[nH]1 [Compound 37] | 80 | 5 | 60 | 30
Nc1c(Cl)c(F)nc(OCC(=O)Nc2nnc(C(F)(F)F)[nH]2)c1Cl [Compound 38] | 100 | 30 | 0 | 98
O=C(COc1cc(Cl)c(Cl)cc1Cl)Nc1nnc(C(F)(F)F)[nH]1 [Compound 39] | 80 | 0 | 0 | 50
Cn1c(NC(=O)COc2ccc(F)cc2Cl)nnc1C(F)(F)F [Compound 40] | 100 | 60 | 70 | 100
Cn1nc(C(F)(F)F)nc1NC(=O)COc1ccc(F)cc1Cl [Compound 41, 2-(2-chloro-4-fluorophenoxy)-N-[1-methyl-3-(trifluoromethyl)-1H-1,2,4-triazol-5-yl]acetamide] | 95 | 40 | 60 | 70
CN(C(=O)COc1ccc(F)cc1Cl)c1nc(C(F)(F)F)nn1C [Compound 42, 2-(2-chloro-4-fluorophenoxy)-N-methyl-N-[1-methyl-3-(trifluoromethyl)-1H-1,2,4-triazol-5-yl]acetamide] | 90 | 40 | 60 | 60
Cc1ccccc1OCCCC(=O)Nc1nnc(C(F)(F)F)[nH]1 [Compound 89] | 40 | 0 | 0 | 95
O=C(COc1ccc2c(c1)NC(=O)CC2)Nc1nc(C(F)(F)F)n[nH]1 [Compound 90] | 0 | 0 | 0 | 70

— patent publication US20230255205A1, “HERBICIDAL HETEROCYCLIC DERIVATIVES” (MoA Technology Limited, priority 2020, published 2023)
